Assay results taken from ChEMBL document CHEMBL5233292, “Biscroyunoid A, an Anti-Hepatic Fibrotic 19-nor-Clerodane Diterpenoid Dimer with a C-16-C-12' Linkage from Croton yunnanensis” (J Nat Prod, 2023).
The source made the active and inactive calls. No cut-off for these calls is given here.

Tests used:
LX-2 [1] = assay: Anti-hepatic fibrosis activity in human LX2 cells assessed as inhibition of TGFbeta1-induced fibronectin expression measured after 48 hrs by immunofluorescence analysis; format: functional, cell-based; conditions: dose 20-40 µM
[2] = Cytotoxicity against human LX2 cells at 20 to 40 uM; format: toxicity, cell-based; conditions: lx-2, 40 µM, dose 20-40 µM
LX-2 [3] = assay: Anti-hepatic fibrosis activity in human LX2 cells assessed as inhibition of TGFbeta1-induced collagen I expression at 20 to 40 uM measured after 48 hrs by western blot analysis; format: functional, cell-based; conditions: dose 20-40 µM
LX-2 [4] = assay: Anti-hepatic fibrosis activity in human LX2 cells assessed as inhibition of TGFbeta1-induced alpha-SMA expression at 20 to 40 uM measured after 48 hrs by western blot analysis; format: functional, cell-based; conditions: dose 20-40 µM
LX2 [5] = assay: Inhibition of TGF-beta1/Smad2/3 signaling in TGF-beta1-stimulated human LX-2 cells assessed as reduction in Smad2 phosphorylation at 20 to 40 uM by western blot analysis; format: cell-based; conditions: dose 20-40 µM
LX2 [6] = assay: Inhibition of TGF-beta1/Smad2/3 signaling in TGF-beta1-stimulated human LX-2 cells assessed as reduction in Smad3 phosphorylation at 20 to 40 uM by western blot analysis; format: cell-based; conditions: dose 20-40 µM
LX2 [7] = assay: Inhibition of TGF-beta1/Smad2/3 signaling in TGF-beta1-stimulated human LX-2 cells assessed as reduction in Smad2/3 translocation from cytoplasm to nucleus at 40 uM by DAPI staining based fluorescence analysis; format: cell-based

COC(=O)C1=CC[C@H]2[C@@]3(CC[C@@H](C)[C@]24C[C@@H](c2occc2[C@H]2C[C@@]56[C@H](O2)O[C@]2(CC[C@H]5C)C(C(=O)OC)=CCC[C@H]62)c2ccoc2[C@@H]4O3)C1
Activity (LX-2 [1]): Dose-Dependent Effect
Activity [2]: Non-Toxic
Activity (LX-2 [3]): Active
Activity (LX-2 [4]): Active
inhibition (LX2 [5]): Active
inhibition (LX2 [6]): Active
inhibition (LX2 [7]): Active
